In US4637902A, “Mixed anhydrides of carbamic and hydroxamic acids” (Fuji Photo Film Co., Ltd., priority 1983, dated 1987):

Experiment: Measurement of Decomposition Rate of Base Precursor (gelatin film on triacetyl cellulose, absorbance change)
Type: physicochemical
Conditions: for Half-Life Period t1/2: 140° C.; for K at 140° C. (× 10^2), first-order reaction rate constant: head multiplier × 10^2
Experimental: Measurement of Decomposition Rate of Base Precursor About 400 mg of the base precursor of the present invention was dissolved in 25 ml of methanol. Separately, 400 mg of gelatin was dissolved in 5 ml of water with heating. After cooling, 5 ml of the above-described methanol solution was added thereto and the mixture well mixed. The resulting mixture solution was uniformly coated on a triacetyl cellulose support and dried to prepare samples. The absorbance of each of the samples at λ max (around 300 nm) was previously measured, then the sample was heated on a hot plate at a definite temperature. The change in absorbance versus time was plotted to calculate first-order reaction rate. Several examples of the reaction rate constants measured by the above-described method are given below.

| SMILES | Half-Life Period t1/2 | K at 140° C. (× 10^2), first-order reaction rate constant |
| --- | --- | --- |
| CN(C)C(=O)ONC(=O)c1ccccc1O [Base Precursor No. (1), Salicylhydroxamic Acid, N,N-Dimethylcarbamate] | 10.3 s | 6.7 |
| CCN(CC)C(=O)ONC(=O)c1ccccc1O [Base Precursor No. (37)] | 18.7 s | 3.7 |
| CCCCN(CCCC)C(=O)ONC(=O)c1ccccc1O [Base Precursor No. (38), Salicylhydroxamic Acid N,N-Dibutylcarbamate] | 7.7 s | 9.0 |
